Results from patent publication US20250177357A1, “METHODS FOR TREATING HYPERTROPHIC CARDIOMYOPATHY” (priority 2021, published 2025).

Assay: Phase 1 plasma pharmacokinetics, CYP2D6 poor metabolizer cohort
Type: in vivo, human
Settings: CYP2D6 poor metabolizers, single 10 mg, n = 7
Experimental: CYP2D6 poor metabolizer cohort.
CYP2D6 genotypes were determined at screening for all study participants; those identified as CYP2D6-PMs were excluded from the SAD and MAD cohorts but were invited to participate in the CYP2D6-PM cohort. The first individual in the CYP2D6-PM cohort was dosed after the SAD 25-mg cohort (FIG. 2). […] Nine participants were randomized (7:2) with a sentinel dosing group consisting of the first 2 participants treated.
Pharmacokinetic analyses. For all study groups, blood samples for PK assessment were obtained pre-dose, up to 12 times daily on day 1, and then at regular intervals throughout the study. Blood samples were collected according to the following schedule: SAD Cohorts: Day 1: pre-dose and 0.25, 0.5, 1, 1.5, 2, 2.5, 3, 4, 6, 8, 12, 16, 24, 36, 48, 72, 96, and 216 h post dose. MAD Cohorts (14-day Dosing): Day 1: pre-dose and 0.25, 0.5, 1, 1.5, 2, 2.5, 3, 4, 6, 8, and 12 h post dose; Days 2, 4, 5, 6, and 9: pre-dose (corresponding to trough samples following dosing on days 1, 3, 4, 5, and 8) and 1.5 h post dose; Days 3, 7, 8, 10, 11, 12, and 13: pre-dose (corresponding to trough samples following dosing on days 2, 6, 7, 9, 10, 11, and 12); Day 14: pre-dose and 0.25, 0.5, 1.5, 2, 2.5, 3, 4, 6, 8, 12, 16, 24, 36, 48, 72, and 168 h post dose. […]

## CCc1nc(-c2ccc3c(c2)CC[C@H]3NC(=O)c2cnn(C)c2)no1 [aficamten, (R)—N-(5-(5-ethyl-1,2,4-oxadiazol-3-yl)-2,3-dihydro-1H-inden-1-yl)-1-methyl-1H-pyrazole-4-carboxamide]
  CL/F, mean ± SD: 3.6 ± 1.4 L/h
